The values that follow come from PMC7472518, “Ultrasensitive Detection of Enzymatic Activity Using Single Molecule Arrays” (Journal of the American Chemical Society, 2020).

The target in one experiment is T1, Abl (Homo sapiens, UniProt P00519).
T1 construct: purchased Millipore (Burlington, MA) 14-529
Nature of the experiment: eSimoa ATP titration for Km, Abl. Type of experiment: biochemical. Conditions: calculated from the EC50 of the ATP response curve. An excerpt: (§1) We first determined the Km values for Src and Abl. Different concentrations of ATP were used in the phosphorylation reaction, while the concentrations of peptide-modified beads and enzymes were kept constant.

The target of another experiment is T2, Src (Homo sapiens, UniProt P12931).
T2 construct: purchased Millipore (Burlington, MA) 14-326
The experiment is described as follows: eSimoa ATP titration for Km, Src. The note with it: calculated from the EC50 of the ATP response curve. The experiment is classed as biochemical.
Excerpt: as §1

For another experiment, the system named is Bcr-Abl. The note with it: read-out: IC50 (reported); cited from earlier work.

The structures appear in SMILES notation. Where a name gives a salt, the structure may show the parent alone.

T1 sequence (P00519 whole entry): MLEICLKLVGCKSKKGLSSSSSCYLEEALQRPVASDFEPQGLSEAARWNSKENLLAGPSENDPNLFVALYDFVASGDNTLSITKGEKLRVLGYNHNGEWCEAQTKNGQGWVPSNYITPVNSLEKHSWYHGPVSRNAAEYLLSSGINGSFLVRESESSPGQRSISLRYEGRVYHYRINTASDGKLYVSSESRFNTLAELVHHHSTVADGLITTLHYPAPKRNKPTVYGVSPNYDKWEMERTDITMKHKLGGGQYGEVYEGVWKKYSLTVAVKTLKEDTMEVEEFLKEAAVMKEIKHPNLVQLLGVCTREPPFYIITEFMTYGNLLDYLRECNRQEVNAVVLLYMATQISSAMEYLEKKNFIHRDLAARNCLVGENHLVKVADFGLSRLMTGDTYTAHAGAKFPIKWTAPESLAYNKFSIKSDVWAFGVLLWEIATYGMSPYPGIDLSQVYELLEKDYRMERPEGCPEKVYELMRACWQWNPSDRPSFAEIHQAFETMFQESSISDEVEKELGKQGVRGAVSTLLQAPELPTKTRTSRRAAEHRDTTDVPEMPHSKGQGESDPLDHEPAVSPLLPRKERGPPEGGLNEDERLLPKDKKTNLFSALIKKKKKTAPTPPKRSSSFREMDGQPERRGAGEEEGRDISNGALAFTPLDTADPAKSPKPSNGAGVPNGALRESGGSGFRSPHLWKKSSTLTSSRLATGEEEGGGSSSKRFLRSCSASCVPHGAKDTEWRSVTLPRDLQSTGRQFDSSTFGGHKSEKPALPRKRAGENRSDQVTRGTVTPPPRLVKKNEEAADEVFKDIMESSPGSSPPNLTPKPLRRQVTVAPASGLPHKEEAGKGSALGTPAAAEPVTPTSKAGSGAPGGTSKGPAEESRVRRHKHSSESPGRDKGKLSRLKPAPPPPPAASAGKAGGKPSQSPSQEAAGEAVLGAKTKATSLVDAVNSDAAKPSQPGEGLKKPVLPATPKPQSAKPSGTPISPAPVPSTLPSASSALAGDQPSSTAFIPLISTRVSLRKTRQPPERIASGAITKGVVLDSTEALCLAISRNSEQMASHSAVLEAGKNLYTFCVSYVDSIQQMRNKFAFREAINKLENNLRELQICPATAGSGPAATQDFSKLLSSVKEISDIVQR

Take `Nc1ncnc2c1ncn2[C@@H]1O[C@H](COP(=O)(O)OP(=O)(O)OP(=O)(O)O)[C@@H](O)[C@H]1O` [ATP, adenosine 5′-triphosphate (ATP) disodium salt hydrate]: the figures for the Km on Abl and on Src were 3.69 µM and 29.2 µM, respectively.

Regarding `COc1cc(Nc2c(C#N)cnc3cc(OCCCN4CCN(C)CC4)c(OC)cc23)c(Cl)cc1Cl` [bosutinib], the IC50 in the experiment with Bcr-Abl is […].

The term Km denotes the concentration of substrate that gives half-maximal velocity. The term IC50 denotes the concentration that inhibits the measured activity by half.
